Where two headings read alike, the source gives them in different places.
What was measured:
in vitro = settings: human
From the text: (§1) Cell viability and cell morphology were examined to evaluate the toxicity of excipients on retinal pigment epithelial cells. The human retina cell line used in these experiments is the ARPE-19 cell line (human adult-derived retinal pigmented epithelial cells). […] They form tight-junctions with transepithelial resistance of monolayers (Dunn K C et al., supra). From a molecular standpoint, it appears that ARPE-19 express a huge pattern of genes similar to those expressed by human RPE from fresh explant which could account for their physiological function (Klimanskaya I. et al., “Derivation and comparative assessment of retinal pigment epithelium from human embryonic stem cells using transcriptomics”, Cloning and Stem Cells, 2004, 6(3):217-45).
(§2) ARPE-19 cells are widely used as a retinal model that resemble physiological properties of RPE cells. Similar methods of culturing ARPE-19 cells and cytotoxicity assays can be found in Yeung et al., “Cytotoxicity of triamcinolone on cultured human retinal pigment epithelial cells: comparison with dexamethasone and hydrocortisone”, Jpn J. Ophthalmol, 2004; 48:236-242. Cell viability and cell morphology were examined using conventional colormetric and visual methods. Viability and morphology measurements were obtained at 24 hours, 48 hours, and 72 hours after exposure to an excipient composition.
(§3) To assess cell viability, mitochondrial metabolism was quantified through conventional colorometric assays (i.e., the MTT assay). This colorimetric assay utilizes 3-(4,5-dimethylthiazol-2-yl)-2,5-diphenyltetrazolium bromide (MTT) and correlates mitochondrial metabolism and cell viability through measurement of dehydrogenase activity which converts a substrate into crystal. More specifically, the assay measures the activity of living cells through mitochondrial dehydrogenases. When dissolved in culture cell medium, MTT solution appears dark orange. Mitochondrial dehydrogenases of viable cells degrade MTT by cleaving the tetrazolium ring yielding to formation of a purple formazan crystal, which is insoluble in water. Crystals are subsequently dissolved in isopropanol solution. A resulting purple solution is spectrophotometrically measured. Cell viability is relative to amount of formazan and calculated as a percentage of remaining treated compared to non-treated cells.
(§4) Results from the MTT assay were expressed as a percentage of cell viability calculated using the following equation: % cell viability=ODtest/ODcontrol×100.
(§5) For each experiment, one concentration was performed in triplicate. Each point was spectrophotometrically read twice. Average of readings was calculated, then average from these 3 values was determined.
(§6) After 3 experiments were independently completed under the same conditions, a graph was plotted with cell viability expressed as a function of concentration (dose response) and for various incubation period (time course). The IC50 was then estimated based on the graphed data.
(§7) More specifically, cell density in 24-multiwell plates was observed on the day of the experiment to check if confluence of the cells was reached. Aliquots of MTT concentrated solutions were removed from a freezer at −20° C. and thawed at room temperature. Cell medium was warmed at 37° C. before use. Appropriated tubes for diluting compounds were prepared. Higher concentrations of each excipient agent was prepared. Serial dilution was then performed in cell medium (DMEM:F12+10% FBS).
(§8) Cell culture medium in the 24-well plate was removed using vacuum-pump. Cells were then stimulated with 0.5 ml final volume for each concentration of one given excipient agent. Distribution of the excipient-containing solution was performed using automated pipet-aid in sterile environment (under PSM) or not depending on time of compounds and duration of incubation.
(§9) After stimulation, cells were replaced in a CO2 incubator for the required time of exposure.

ARPE-19 cells [1] = test: in vitro
From the text: as §1, §2, §3, §4, §5, §6, §7, §8, §9

[2] = Osmolarity of excipient-containing incubating solutions; type: physicochemical
Experimental: Osmolarity was measured using osmometer type 13/13DR from Roebling (Berlin, GR).
(§10) For each concentration of tested compound, pH and osmolarity parameters were measured.

ARPE-19 cells [3] = type: cell-based
Experimental: Cell morphology was visualized using light microscopy. Cell morphology observation using light microscopy permits determination of (i) cell number and density and (ii) whether or not cells in contact with an excipient agent display modified phenotype compared to a non-treated population of cells.
Cell morphology was analyzed in parallel by semi-quantitative scoring ranging from 5 to 1, from basal to lethal phenotype respectively, as shown in FIG. 23.
More specifically, cells were removed from an incubator for examination. Morphological shape of cells was visualized using a light microscope and CCD camera. Every 3 wells of a given concentration was observed through image analysis software. Then, a representative photograph describing the average appearance of cells was saved. The supernatant was either, kept for further predefined experiments to perform, or removed using vacuum-pump.
Resulting semi-quantitative scoring is represented as a function of time course and dose response. Score 5: wild type phenotype of non-treated cells, 100% confluent adherent cells. This phenotype very much vary following post-seeding time. For example, at confluence ARPE-19 cells at 1 day appear well defined with visible outer membrane and dark grey cytoplasm. After 3 days of confluence, limits between cells become less visible and cells adopt a more hexagonal shape and constitute an epithelium-like uniform dense structure. Score 4: density<100%. Cell shape has changed, some spaces are present between cells, few cells possibly detached. Score 3: […]. Spaces are sometimes present among cells, areas appears confluent while in others, cells detached. General cell shape starts showing non negligible alterations. Score 2: Cell density<50%. Cells adopt exclusively stressed appearance, presence of mass dead floating cells. Score 1: Cell density<10%. Presence of almost exclusively dead cells.
Based on quotation, each condition of the applied compound was given a score which allow to a morphology evolution profile to be prepared, ie. cell morphology as a function of compound concentration and time of exposure. […]

[4] = pH of excipient-containing incubating solutions; type: physicochemical
Experimental: as §10

[5] = 0.05% excipient dilution in culture medium
[6] = 0.1% excipient dilution in culture medium
[7] = 0.5% excipient dilution in culture medium
[8] = 1% excipient dilution in culture medium
[9] = 2% excipient dilution in culture medium
[10] = […] excipient dilution in culture medium

mOsm [2, 5]: 293 mOsm | mOsm [2, 6]: 307 mOsm | mOsm [2, 7]: 347 mOsm | mOsm [2, 8]: 398 mOsm | mOsm [2, 9]: 493 mOsm | mOsm [2, 10]: 444 mOsm | pH [4, 5]: 8 | pH [4, 6]: 8.1 | pH [4, 7]: 8 | pH [4, 8]: 7.9 | pH [4, 9]: 8 | pH [4, 10]: 7.9
Structure (SMILES): OCc1ccccc1 [Benzyl alcohol, benzyl alcohol]
cytotoxicity at 0.05 % (in vitro): ~45% | viability at 24 h, 0.05 % (in vitro; Cell Viability): 56.1% | viability at 24 h, 0.1 % (in vitro; Cell Viability): 48% | viability at 48 h, 0.05 % (in vitro; Cell Viability): 60.9% | viability at 48 h, 0.1 % (in vitro; Cell Viability): 49% | viability at 48 h, 0.5 % (in vitro; Cell Viability): 1.2% | viability at 72 h, 0.05 % (in vitro; Cell Viability): 57.5% | viability at 72 h, 0.1 % (in vitro; Cell Viability): 49.1% | viability at 24 h, 0.05 % (in vitro; Cell Viability, Mean (%)): 55.7% | viability at 24 h, 0.1 % (in vitro; Cell Viability, Mean (%)): 45.9% | viability at 24 h, 0.5 % (in vitro; Cell Viability, Mean (%)): 13.3% | viability at 24 h, 1 % (in vitro; Cell Viability, Mean (%)): 0.4% | viability at 24 h, 2 % (in vitro; Cell Viability, Mean (%)): 0.3% | viability at 24 h, […] (in vitro; Cell Viability, Mean (%)): 0.4% | viability at 48 h, 0.05 % (in vitro; Cell Viability, Mean (%)): 57.3% | viability at 48 h, 0.1 % (in vitro; Cell Viability, Mean (%)): 42% | viability at 48 h, 0.5 % (in vitro; Cell Viability, Mean (%)): 1.5% | viability at 48 h, 1 % (in vitro; Cell Viability, Mean (%)): 1.5% | viability at 48 h, 2 % (in vitro; Cell Viability, Mean (%)): 1.2% | viability at 48 h, […] (in vitro; Cell Viability, Mean (%)): 1.3% | viability at 72 h, 0.05 % (in vitro; Cell Viability, Mean (%)): 53.7% | viability at 72 h, 0.1 % (in vitro; Cell Viability, Mean (%)): 42.2% | viability at 72 h, 0.5 % (in vitro; Cell Viability, Mean (%)): 1.1% | viability at 72 h, 1 % (in vitro; Cell Viability, Mean (%)): 0.9% | viability at 72 h, 2 % (in vitro; Cell Viability, Mean (%)): 1% | viability at 72 h, […] (in vitro; Cell Viability, Mean (%)): 1% | overall cytotoxicity to ARPE-19 cells (conclusion in words) (ARPE-19 cells [1]): very aggressive impact | living cells (morphology observation) (ARPE-19 cells [3]): no living cells survived | Morphology limit concentration (%) (ARPE-19 cells [3]; human): 0.07% | Cell Morphology score, Mean (ARPE-19 cells [3]; human, 24 h, 0.05 %): 3.3 | Cell Morphology score, Mean (ARPE-19 cells [3]; human, 24 h, 0.1 %): 3.0 | Cell Morphology score, Mean (ARPE-19 cells [3]; human, 24 h, 0.5 %): 1.0 | Cell Morphology score, Mean (ARPE-19 cells [3]; human, 24 h, 1 %): 1.0 | Cell Morphology score, Mean (ARPE-19 cells [3]; human, 24 h, 2 %): 1.0 | Cell Morphology score, Mean (ARPE-19 cells [3]; human, 24 h, […]): 1.0 | Cell Morphology score, Mean (ARPE-19 cells [3]; human, 48 h, 0.05 %): 3.7 | Cell Morphology score, Mean (ARPE-19 cells [3]; human, 48 h, 0.1 %): 3.0 | Cell Morphology score, Mean (ARPE-19 cells [3]; human, 48 h, 0.5 %): 1.0 | Cell Morphology score, Mean (ARPE-19 cells [3]; human, 48 h, 1 %): 1.0 | Cell Morphology score, Mean (ARPE-19 cells [3]; human, 48 h, 2 %): 1.0 | Cell Morphology score, Mean (ARPE-19 cells [3]; human, 48 h, […]): 1.0 | Cell Morphology score, Mean (ARPE-19 cells [3]; human, 72 h, 0.05 %): 3.3 | Cell Morphology score, Mean (ARPE-19 cells [3]; human, 72 h, 0.1 %): 3.0 | Cell Morphology score, Mean (ARPE-19 cells [3]; human, 72 h, 0.5 %): 1.0 | Cell Morphology score, Mean (ARPE-19 cells [3]; human, 72 h, 1 %): 1.0 | Cell Morphology score, Mean (ARPE-19 cells [3]; human, 72 h, 2 %): 1.0 | Cell Morphology score, Mean (ARPE-19 cells [3]; human, 72 h, […]): 1.0

Reference: patent US20050244472A1, “Intraocular drug delivery systems containing excipients with reduced toxicity and related methods” (Allergan, Inc., priority 2004, published 2005)
